According to ChEMBL document CHEMBL5303573, “Mapping human microbiome drug metabolism by gut bacteria and their genes” (Nature, 2019):

Key:
[1] = limosilactobacillus reuteri cf48-3a, 12 h, 2 µM
Description: The drug is tested on Lactobacillus reuteri CF48-3A strain: BEI HM-102 for biotransformation. The drug concentrations were measured before and after a 12-h incubation by liquid-chromatography-coupled mass spectrometry (LC–MS)

[2] = bacteroides fragilis, 12 h, 2 µM
Description: The drug is tested on Bacteroides fragilis strain: DS-208 for biotransformation. The drug concentrations were measured before and after a 12-h incubation by liquid-chromatography-coupled mass spectrometry (LC–MS)

[3] = The drug is tested on Clostridium scindens strain: ATCC35704 for biotransformation. The drug concentrations were measured before and after a 12-h incubation by liquid-chromatography-coupled mass spectrometry (LC–MS); conditions: 2 µM
[4] = The drug is tested on Bacteroides finegoldii strain: DSM17565 for biotransformation. The drug concentrations were measured before and after a 12-h incubation by liquid-chromatography-coupled mass spectrometry (LC–MS); conditions: 2 µM
[5] = The drug is tested on Blautia hansenii strain: DSM20583 for biotransformation. The drug concentrations were measured before and after a 12-h incubation by liquid-chromatography-coupled mass spectrometry (LC–MS); conditions: 2 µM
[6] = The drug is tested on Odoribacter splanchnicus strain: fecal isolate for biotransformation. The drug concentrations were measured before and after a 12-h incubation by liquid-chromatography-coupled mass spectrometry (LC–MS); conditions: 2 µM
[7] = The drug is tested on Bacteroides sp. WH2 strain: WH2 for biotransformation. The drug concentrations were measured before and after a 12-h incubation by liquid-chromatography-coupled mass spectrometry (LC–MS); conditions: bacteroides sp. wh2, 12 h, 2 µM
[8] = The drug is tested on Dorea formicigenerans strain: ATCC27755 for biotransformation. The drug concentrations were measured before and after a 12-h incubation by liquid-chromatography-coupled mass spectrometry (LC–MS); conditions: 2 µM
[9] = The drug is tested on Enterococcus faecalis strain: V583 for biotransformation. The drug concentrations were measured before and after a 12-h incubation by liquid-chromatography-coupled mass spectrometry (LC–MS); conditions: 2 µM
[10] = bacteroides stercoris, 12 h, 2 µM
Description: The drug is tested on Bacteroides stercoris strain: ATCC43183 for biotransformation. The drug concentrations were measured before and after a 12-h incubation by liquid-chromatography-coupled mass spectrometry (LC–MS)

[11] = bacteroides thetaiotaomicron, 12 h, 2 µM
Description: The drug is tested on Bacteroides thetaiotaomicron strain: 7330 for biotransformation. The drug concentrations were measured before and after a 12-h incubation by liquid-chromatography-coupled mass spectrometry (LC–MS)

[12] = The drug is tested on Bacteroides vulgatus strain: ATCC8482 for biotransformation. The drug concentrations were measured before and after a 12-h incubation by liquid-chromatography-coupled mass spectrometry (LC–MS); conditions: phocaeicola vulgatus, 2 µM
[13] = parabacteroides johnsonii, 12 h, 2 µM
Description: The drug is tested on Parabacteroides johnsonii strain: DSM18315 for biotransformation. The drug concentrations were measured before and after a 12-h incubation by liquid-chromatography-coupled mass spectrometry (LC–MS)

[14] = bacteroides thetaiotaomicron, 12 h, 2 µM; remark: listed apart in the source
Description: The drug is tested on Bacteroides thetaiotaomicron strain: VPI-5482 for biotransformation. The drug concentrations were measured before and after a 12-h incubation by liquid-chromatography-coupled mass spectrometry (LC–MS)

[15] = The drug is tested on Edwardsiella tarda strain: ATCC23685 for biotransformation. The drug concentrations were measured before and after a 12-h incubation by liquid-chromatography-coupled mass spectrometry (LC–MS); conditions: 2 µM
[16] = The drug is tested on Bifidobacterium breve strain: DSM20213 for biotransformation. The drug concentrations were measured before and after a 12-h incubation by liquid-chromatography-coupled mass spectrometry (LC–MS); conditions: 2 µM
[17] = The drug is tested on Collinsella aerofaciens strain: ATCC25986 for biotransformation. The drug concentrations were measured before and after a 12-h incubation by liquid-chromatography-coupled mass spectrometry (LC–MS); conditions: 2 µM
[18] = The drug is tested on Ruminococcus gnavus strain: ATCC29149 for biotransformation. The drug concentrations were measured before and after a 12-h incubation by liquid-chromatography-coupled mass spectrometry (LC–MS); conditions: mediterraneibacter gnavus, 2 µM
[19] = The drug is tested on Bacteroides ovatus strain: ATCC8483 for biotransformation. The drug concentrations were measured before and after a 12-h incubation by liquid-chromatography-coupled mass spectrometry (LC–MS); conditions: 2 µM
[20] = The drug is tested on Bacteroides caccae strain: ATCC43185 for biotransformation. The drug concentrations were measured before and after a 12-h incubation by liquid-chromatography-coupled mass spectrometry (LC–MS); conditions: 2 µM

Row | Compound | Bacterial Biotransformation [1] | Bacterial Biotransformation [2] | Bacterial Biotransformation [3] | Bacterial Biotransformation [4] | Bacterial Biotransformation [5] | Bacterial Biotransformation [6] | Bacterial Biotransformation [7] | Bacterial Biotransformation [8] | Bacterial Biotransformation [9] | Bacterial Biotransformation [10] | Bacterial Biotransformation [11] | Bacterial Biotransformation [12] | Bacterial Biotransformation [13] | Bacterial Biotransformation [14] | Bacterial Biotransformation [15] | Bacterial Biotransformation [16] | Bacterial Biotransformation [17] | Bacterial Biotransformation [18] | Bacterial Biotransformation [19] | Bacterial Biotransformation [20]
1 | CC1=C(CC(=O)O)c2cc(F)ccc2/C1=C\c1ccc([S+](C)[O-])cc1 (stereo not drawn) | Compound NOT metabolized | Compound NOT metabolized | Compound NOT metabolized | Compound NOT metabolized | Compound NOT metabolized | Compound NOT metabolized | Compound NOT metabolized | Compound NOT metabolized | Compound NOT metabolized | Compound NOT metabolized | Compound NOT metabolized | Compound NOT metabolized | Compound NOT metabolized | Compound NOT metabolized | Compound NOT metabolized | Compound NOT metabolized | Compound NOT metabolized | Compound NOT metabolized | Compound NOT metabolized | –
2 | O=c1[nH]c2ccccc2n1C1CCN(CCCC(c2ccc(F)cc2)c2ccc(F)cc2)CC1 [PIMOZIDE] | Compound NOT metabolized | Compound NOT metabolized | – | Compound NOT metabolized | Compound NOT metabolized | Compound NOT metabolized | Compound NOT metabolized | Compound NOT metabolized | Compound NOT metabolized | Compound NOT metabolized | Compound NOT metabolized | Compound NOT metabolized | Compound NOT metabolized | Compound NOT metabolized | Compound NOT metabolized | Compound NOT metabolized | Compound NOT metabolized | Compound NOT metabolized | Compound NOT metabolized | Compound NOT metabolized
3 | O=C([O-])C[C@H](O)C[C@H](O)/C=C/c1c(C2CC2)nc2ccccc2c1-c1ccc(F)cc1.O=C([O-])C[C@H](O)C[C@H](O)/C=C/c1c(C2CC2)nc2ccccc2c1-c1ccc(F)cc1.[Ca+2] [PITAVASTATIN CALCIUM] | Compound NOT metabolized | Compound NOT metabolized | Compound NOT metabolized | – | Compound NOT metabolized | Compound NOT metabolized | Compound NOT metabolized | Compound NOT metabolized | – | Compound NOT metabolized | Compound NOT metabolized | Compound NOT metabolized | Compound NOT metabolized | Compound NOT metabolized | Compound NOT metabolized | Compound NOT metabolized | Compound NOT metabolized | Compound NOT metabolized | Compound NOT metabolized | Compound NOT metabolized
4 | C[C@]12C=CC(=O)C=C1CC[C@@H]1[C@@H]2C(=O)C[C@@]2(C)[C@H]1CC[C@]2(O)C(=O)CO [PREDNISONE] | Compound NOT metabolized | Compound NOT metabolized | Compound NOT metabolized | Compound NOT metabolized | Compound NOT metabolized | Compound NOT metabolized | Compound NOT metabolized | Compound NOT metabolized | Compound NOT metabolized | – | Compound NOT metabolized | Compound NOT metabolized | Compound NOT metabolized | Compound NOT metabolized | Compound NOT metabolized | Compound NOT metabolized | Compound NOT metabolized | Compound NOT metabolized | Compound NOT metabolized | Compound NOT metabolized
5 | CNNCc1ccc(C(=O)NC(C)C)cc1 [PROCARBAZINE] | Compound NOT metabolized | – | Compound NOT metabolized | Compound NOT metabolized | Compound NOT metabolized | Compound NOT metabolized | – | Compound NOT metabolized | Compound NOT metabolized | Compound NOT metabolized | Compound NOT metabolized | Compound NOT metabolized | Compound metabolized | Compound NOT metabolized | Compound NOT metabolized | Compound NOT metabolized | Compound NOT metabolized | Compound NOT metabolized | Compound NOT metabolized | Compound NOT metabolized
6 | O=C1C(CC[S+]([O-])c2ccccc2)C(=O)N(c2ccccc2)N1c1ccccc1 (stereo not drawn) [SULFINPYRAZONE] | Compound NOT metabolized | Compound metabolized | – | Compound NOT metabolized | Compound NOT metabolized | Compound metabolized | – | Compound NOT metabolized | Compound NOT metabolized | Compound NOT metabolized | Compound NOT metabolized | Compound NOT metabolized | Compound NOT metabolized | Compound NOT metabolized | Compound NOT metabolized | Compound NOT metabolized | Compound NOT metabolized | Compound NOT metabolized | Compound NOT metabolized | Compound NOT metabolized
7 | C=CC[C@@H]1/C=C(\C)C[C@H](C)C[C@H](OC)[C@H]2O[C@@](O)(C(=O)C(=O)N3CCCC[C@H]3C(=O)O[C@H](/C(C)=C/[C@@H]3CC[C@@H](O)[C@H](OC)C3)[C@H](C)[C@@H](O)CC1=O)[C@H](C)C[C@@H]2OC.O [TACROLIMUS] | Compound metabolized | Compound NOT metabolized | Compound metabolized | Compound metabolized | Compound metabolized | Compound metabolized | Compound NOT metabolized | Compound NOT metabolized | – | Compound metabolized | Compound NOT metabolized | Compound NOT metabolized | Compound metabolized | Compound NOT metabolized | Compound NOT metabolized | Compound NOT metabolized | Compound metabolized | Compound metabolized | Compound NOT metabolized | –
8 | COc1cc2nc(N3CCN(C(=O)C4CCCO4)CC3)nc(N)c2cc1OC (stereo not drawn) [TERAZOSIN] | Compound NOT metabolized | Compound NOT metabolized | – | Compound NOT metabolized | Compound NOT metabolized | Compound NOT metabolized | Compound NOT metabolized | Compound NOT metabolized | Compound NOT metabolized | Compound NOT metabolized | Compound NOT metabolized | Compound NOT metabolized | Compound NOT metabolized | Compound NOT metabolized | Compound NOT metabolized | Compound NOT metabolized | Compound NOT metabolized | Compound NOT metabolized | Compound NOT metabolized | Compound NOT metabolized
